Reference: publication PMC6881810, “Trichoderma reesei Dehydrogenase, a Pyrroloquinoline Quinone-Dependent Member of Auxiliary Activity Family 12 of the Carbohydrate-Active Enzymes Database: Functional and Structural Characterization” (Applied and Environmental Microbiology, 2019)

Target: T1, TrAA12 (Trichoderma reesei, UniProt G0RPY6)
T1 construct: gene AA12
Assay: cytochrome c reduction at […] nm, Michaelis-Menten nonlinear fit
Format: biochemical
Details: 50 uM cytochrome c, 4 uM PQQ, 1 mM CaCl2, 50 mM sodium acetate pH 5.5, 40 C; full cofactor occupancy assumed

T1 sequence (G0RPY6 24-430): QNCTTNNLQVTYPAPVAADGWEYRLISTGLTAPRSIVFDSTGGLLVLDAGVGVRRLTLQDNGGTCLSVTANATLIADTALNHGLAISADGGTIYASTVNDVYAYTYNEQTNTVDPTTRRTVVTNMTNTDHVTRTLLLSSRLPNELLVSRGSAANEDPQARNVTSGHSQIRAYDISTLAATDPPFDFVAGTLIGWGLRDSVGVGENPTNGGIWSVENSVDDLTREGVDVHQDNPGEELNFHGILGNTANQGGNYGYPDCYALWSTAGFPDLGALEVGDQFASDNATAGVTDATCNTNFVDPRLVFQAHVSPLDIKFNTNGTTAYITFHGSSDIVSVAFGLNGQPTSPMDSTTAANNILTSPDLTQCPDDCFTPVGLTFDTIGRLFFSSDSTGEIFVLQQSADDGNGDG

Km: 99.9 ± 9.7 mM
Compound: C[C@@H]1OC(O)[C@@H](O)[C@H](O)[C@@H]1O (stereo partly drawn) [L-fucose]
